Measurements from PMC9534909, “BMS794833 inhibits macrophage efferocytosis by directly binding to MERTK and inhibiting its activity” (Experimental & Molecular Medicine, 2022).
Where a chain is given by its changes, count along the chain named.

Assays:
[1] = target: T1, MERTK (Homo sapiens, UniProt Q12866); test: HTRF KinEASE-TK kinase kinetic assay; assay type: biochemical
T1 construct: kinase domain (residues 571–864, wild type; WT)
T1 sequence (Q12866 571-864): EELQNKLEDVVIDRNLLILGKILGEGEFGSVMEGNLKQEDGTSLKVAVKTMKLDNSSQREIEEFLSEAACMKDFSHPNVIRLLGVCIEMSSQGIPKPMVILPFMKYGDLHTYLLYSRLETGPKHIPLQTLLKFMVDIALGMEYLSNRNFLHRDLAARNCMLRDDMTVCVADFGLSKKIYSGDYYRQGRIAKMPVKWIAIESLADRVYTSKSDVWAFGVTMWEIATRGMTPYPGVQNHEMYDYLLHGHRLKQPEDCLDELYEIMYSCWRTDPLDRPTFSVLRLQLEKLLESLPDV

[2] = target: T2, MERTK (Homo sapiens, UniProt Q12866, K591R/K693R/K702R/K856R); test: X-ray cocrystal structure at […] Å; assay type: binding
T2 construct: kinase domain (residues 571–864), KR mutant
T2 sequence (Q12866 571-864 K591R/K693R/K702R/K856R): T1 sequence (Q12866 571-864) with K21R, K123R, K132R, K286R

Ki [1]: 22.4 nM
SMILES: Nc1nccc(Oc2ccc(NC(=O)c3c[nH]cc(-c4ccc(F)cc4)c3=O)cc2F)c1Cl [BMS794833, N-[4-(2-amino-3-chloropyridin-4-yl)oxy-3-fluorophenyl]-5-(4-fluorophenyl)-4-oxo-1H-pyridine-3-carboxamide]
X-ray cocrystal structure at 2.16 Å [2]: clear electron density map for BMS794833 showed that it occupied both the ATP-binding pocket and the allosteric back pocket
